{"source": "paper PMC6359543", "about": "“Efficacy of Azatyrosine-Phenylbutyric Hydroxamides, a Histone Deacetylase Inhibitor, on Chemotherapy-Induced Gastrointestinal Mucositis” (International Journal of Molecular Sciences, 2019)", "key": {"[1]": {"molecular_target": "T1, HDAC1 (Homo sapiens, UniProt Q13547)", "T1 construct": "purchased Enzo Life Sciences, Farmingdale, NY, USA", "T1 sequence (Q13547 whole entry, species assumed)": "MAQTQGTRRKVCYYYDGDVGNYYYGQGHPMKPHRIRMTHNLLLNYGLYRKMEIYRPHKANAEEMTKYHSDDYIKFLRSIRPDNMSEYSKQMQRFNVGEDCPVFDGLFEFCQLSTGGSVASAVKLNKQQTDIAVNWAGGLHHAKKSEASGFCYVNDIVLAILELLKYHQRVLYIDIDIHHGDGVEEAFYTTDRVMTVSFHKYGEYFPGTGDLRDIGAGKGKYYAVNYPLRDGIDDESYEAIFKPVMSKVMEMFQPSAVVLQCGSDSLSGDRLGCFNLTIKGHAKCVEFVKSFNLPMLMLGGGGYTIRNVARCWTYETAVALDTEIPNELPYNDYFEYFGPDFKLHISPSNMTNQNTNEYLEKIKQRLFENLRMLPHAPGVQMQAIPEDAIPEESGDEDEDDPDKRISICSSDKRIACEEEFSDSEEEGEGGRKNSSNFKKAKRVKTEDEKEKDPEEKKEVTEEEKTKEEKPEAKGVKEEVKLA", "assay": "HDAC fluorometric activity assay, HDAC1", "assay_type": "biochemical", "method": "Pan HDAC enzyme (all the known class I HDACs-HDAC1, HDAC2, HDAC3, HDAC8 and class II HDACs 4-7, 9 and 10), HDAC subtype 1, 3 and 4 activity were determined by using the HDAC fluorometric cellular activity assay (Enzo Life Sciences, Farmingdale, NY, USA) according to the manufacturer’s protocol. […] Percent activity for each of the test compounds is calculated as follows:\nActivity = {(Sc − B)/(S° − B)} × 100. […] IC50 was then calculated and represented as mean ± SD."}, "[2]": {"system": "IEC-6 cells", "assay": "LPS-induced inflammatory protein expression in IEC-6 cells (Western blot)", "assay_type": "cell-based, Rat", "conditions": "LPS 500 ng/mL 8 h, AzP 1–20 μM", "method": "Figure 5 Hierarchical clustering and KEGG analyses of gene profiles of the AzP-manipulated IEC-6 cells. (A) Two independent experiments were performed, samples were named C1, C2 as control group (1% dimethyl sulfoxide (DMSO)); LPS1, LPS2 as lipopolysaccharide (LPS) 500 ng/mL group; LPS + AzP1, LPS + AzP2 as LPS 500 ng/mL and AzP 20 μM group. Heat maps showing the clustering analysis of the IEC-6 cells with different treatments (1% DMSO, LPS 500 ng/mL and/or AzP 20 μM) indicates up-regulation (red), down-regulation (green), and mean gene expression (black). […] IEC-6 cells were treated with LPS 500 ng/mL for 8 h and/or AzP 1–20 μM, Western blot performed and immunoblotted with several inflammatory protein expressions including MMP-9 (C), IL-1β (D), iNOS (E), and IL-6 (F). Density was measured and calculated. ### p < 0.001 as compared with the control, ## p < 0.01 as compared with the control, # p < 0.05 as compared with the control, * p < 0.05 as compared with the LPS-treated group, ** p < 0.01 as compared with the LPS-treated group and *** p < 0.001 as compared with LPS-treated group.\n(§1) IEC-6 cells were incubated in different AzP concentrations with/without LPS stimulation for 24 h. The homogenate from cells or tissues was then centrifuged at 14,000× g for 10 min at 4 °C and the supernatant was collected. Protein separation was performed using 10% reducing SDS-PAGE, electrotransferred onto polyvinylidene difluoride (PVDF), and immunoblotted with antibodies against inflammatory proteins as well as β-actin as control. Densitometry was performed using BioLight software V2000.01 (Uhldingen-Mühlhofen, Germany). The optical density of specific protein was normalized to an internal control and expressed as a ratio to control."}, "[3]": {"system": "IEC-6 cells", "assay": "LPS-induced MAPK/Akt phosphorylation in IEC-6 cells (Western blot)", "assay_type": "cell-based, Rat", "method": "Figure 6 Western blotting of IEC-6 cells treated with LPS and/or AzP. (A) IEC-6 cells (1 × 10^6 cells/mL) were dispensed on 6 cm dishes and (A) treated with LPS (500 ng/mL) for 10, 20, 30, 60, and 90 min. Data expressed as means ± SD from 3 independent experiments. * p < 0.05 as compared with the resting. (B) Treatment with LPS (500 ng/mL) for 10 min as indicated. Cells were treated with the indicated concentrations of AzP (5, 10, and 20 μM) or vehicle for 30 min before treatment with LPS. Cell lysates were collected for Western blot targeting p-ERK phosphorylation (Thr202/Tyr204, B), MEK phosphorylation ([…], C), and Akt phosphorylation (Ser473, D). Data expressed as means ± SD from 3 independent experiments. ### p < 0.001 as compared with the resting, * p < 0.05, ** p < 0.01 and *** p < 0.001 as compared with the vehicle.\nas §1"}, "[4]": {"system": "Salmonella typhimurium TA100", "assay_type": "cell-based", "protocol": "(§2) Five strains of Salmonella typhimurium, TA98, TA102, TA100, TA1537, and TA1535, were obtained from Moltox (Boone, NC, USA). Mutagenicity was evaluated by the incorporation method in the presence or absence of S9 metabolic activation [29]. A volume of 100 µL of each test bacterial culture (10^9 cells/mL), 2 mL soft agar (0.6% agar, 0.5% NaCl, 5 mM histidine, and 50 mM biotin, pH 7.4, 40–50 °C), 0.5 mL S9 mixture (if necessary), and AzP were mixed well in a test tube. […] The revertant colonies were counted, and a positive mutagenic response was identified when (i) the number of revertants was at least double the spontaneous yield; (ii) a statistical significance (p ≤ 0.05) was found; and (iii) a reproducible positive dose response was present."}, "[5]": {"system": "Salmonella typhimurium TA1537", "assay": "Salmonella/microsome reversion assay (Ames test), TA1537", "assay_type": "cell-based", "protocol": "as §2"}, "[6]": {"system": "IEC-6 cells", "assay": "Cisplatin-reduced IEC-6 cell viability", "assay_type": "cell-based, Rat", "conditions": "data not shown"}}, "note": "Read-outs that look alike come from different tables or passages of the source.", "data": [{"smiles": "CC(C)(C)OC(=O)NC(Cc1ccc(OCc2ccccc2)cn1)C(=O)Nc1ccc(CCCC(=O)NO)cc1", "note": "(stereo not drawn) [AzP, Azatyrosine-phenylbutyric hydroxamides]", "values": [{"measurement": "IC50", "setting": "[1]", "value": "3.44 ± 0.68", "unit": "µM"}, {"measurement": "LPS-induced IL-1β protein expression", "setting": "[2]", "value": "concentration-dependently inhibited"}, {"measurement": "LPS-induced IL-6 protein expression", "setting": "[2]", "value": "concentration-dependently inhibited"}, {"measurement": "LPS-induced MMP9 protein expression", "setting": "[2]", "value": "concentration-dependently inhibited"}, {"measurement": "protein expression of iNOS", "setting": "[2]", "value": "unaffected"}, {"measurement": "LPS-induced ERK activation (phosphorylation)", "setting": "[3]; LPS 500 ng/mL 10 min, AzP 5–20 μM", "value": "dose-dependently reverse"}, {"measurement": "LPS-induced Akt phosphorylation", "setting": "[3]; LPS 10 min, AzP 5–20 μM", "value": "concentration-dependently reversed"}, {"measurement": "LPS-induced MEK1/2 phosphorylation", "setting": "[3]; LPS 10 min, AzP 5–20 μM", "value": "concentration-dependently reversed"}, {"measurement": "JNK phosphorylation", "setting": "[3]; LPS, data not shown", "value": "unaffected"}, {"measurement": "p38 phosphorylation", "setting": "[3]; LPS, data not shown", "value": "unaffected"}, {"measurement": "IKK phosphorylation", "setting": "[3]; Western blot", "value": "unaffected"}, {"measurement": "p65 phosphorylation", "setting": "[3]; Western blot", "value": "unaffected"}, {"measurement": "Ames test result, TA100 (-S9)", "setting": "[4]; -S9", "value": "Negative"}, {"measurement": "Revertant colonies per plate (+S9) TA100", "setting": "[4]; AzP 0.00245 mg/plate", "value": "106.7±2.2"}, {"measurement": "Revertant colonies per plate (-S9) TA100", "setting": "[4]; AzP 0.00245 mg/plate", "value": "81±5"}, {"measurement": "Revertant colonies per plate (+S9) TA100", "setting": "[4]; AzP 0.0049 mg/plate", "value": "106±4.4"}, {"measurement": "Revertant colonies per plate (-S9) TA100", "setting": "[4]; AzP 0.0049 mg/plate", "value": "78.7±2.7"}, {"measurement": "Revertant colonies per plate (+S9) TA100", "setting": "[4]; AzP 0.0098 mg/plate", "value": "107.3±1.3"}, {"measurement": "Revertant colonies per plate (-S9) TA100", "setting": "[4]; AzP 0.0098 mg/plate", "value": "81.7±2.7"}, {"measurement": "Revertant colonies per plate (+S9) TA100", "setting": "[4]; AzP 0.0195 mg/plate", "value": "110.3±3.8"}, {"measurement": "Revertant colonies per plate (-S9) TA100", "setting": "[4]; AzP 0.0195 mg/plate", "value": "89.7±9"}, {"measurement": "Revertant colonies per plate (+S9) TA100", "setting": "[4]; AzP 0.0391 mg/plate", "value": "150.3±19.7"}, {"measurement": "Revertant colonies per plate (-S9) TA100", "setting": "[4]; AzP 0.0391 mg/plate", "value": "90.8±9.6"}, {"measurement": "Revertant colonies per plate (+S9) TA100", "setting": "[4]; AzP 0.0781 mg/plate", "value": "153±3.1"}, {"measurement": "Revertant colonies per plate (-S9) TA100", "setting": "[4]; AzP 0.0781 mg/plate", "value": "88.7±1.2"}, {"measurement": "Revertant colonies per plate (+S9) TA100", "setting": "[4]; AzP 0.156 mg/plate", "value": "104±8"}, {"measurement": "Revertant colonies per plate (+S9) TA100", "setting": "[4]; AzP 0.3125 mg/plate", "value": "92.2±5.2"}, {"measurement": "Ames test result, TA100 (|S9)", "setting": "[4]; second S9 group", "value": "Negative"}, {"measurement": "Ames test result, TA1537 (-S9)", "setting": "[5]; -S9", "value": "Negative"}, {"measurement": "Revertant colonies per plate (+S9) TA1537", "setting": "[5]; AzP 0.00245 mg/plate", "value": "32.3±3"}, {"measurement": "Revertant colonies per plate (-S9) TA1537", "setting": "[5]; AzP 0.00245 mg/plate", "value": "15±0.5"}, {"measurement": "Revertant colonies per plate (+S9) TA1537", "setting": "[5]; AzP 0.0049 mg/plate", "value": "35.3±2.2"}, {"measurement": "Revertant colonies per plate (-S9) TA1537", "setting": "[5]; AzP 0.0049 mg/plate", "value": "10.7±0.9"}, {"measurement": "Revertant colonies per plate (+S9) TA1537", "setting": "[5]; AzP 0.0098 mg/plate", "value": "29.3±2.2"}, {"measurement": "Revertant colonies per plate (-S9) TA1537", "setting": "[5]; AzP 0.0098 mg/plate", "value": "10±0.6"}, {"measurement": "Revertant colonies per plate (+S9) TA1537", "setting": "[5]; AzP 0.0195 mg/plate", "value": "27.3±2.7"}, {"measurement": "Revertant colonies per plate (-S9) TA1537", "setting": "[5]; AzP 0.0195 mg/plate", "value": "10±2"}, {"measurement": "Revertant colonies per plate (+S9) TA1537", "setting": "[5]; AzP 0.0391 mg/plate", "value": "22.1±2.5"}, {"measurement": "Revertant colonies per plate (-S9) TA1537", "setting": "[5]; AzP 0.0391 mg/plate", "value": "11.8±6"}, {"measurement": "Revertant colonies per plate (+S9) TA1537", "setting": "[5]; AzP 0.0781 mg/plate", "value": "16±2.5"}, {"measurement": "Revertant colonies per plate (-S9) TA1537", "setting": "[5]; AzP 0.0781 mg/plate", "value": "12±4.9"}, {"measurement": "Revertant colonies per plate (+S9) TA1537", "setting": "[5]; AzP 0.156 mg/plate", "value": "18±1"}, {"measurement": "Revertant colonies per plate (-S9) TA1537", "setting": "[5]; AzP 0.156 mg/plate", "value": "14.7±2"}, {"measurement": "Ames test result, TA1537 (|S9)", "setting": "[5]; second S9 group", "value": "Negative"}, {"measurement": "influence on cisplatin-reduced cell viability", "setting": "[6]", "value": "did not influence"}]}]}
